According to patent US6916843B1, “Anti-inflammatory actions of cytochrome P450 expoxygenase-derived eicosanoids” (The United States of America as represented by the …, priority 1999, dated 2005):

Assays:
[1] = system: E-selectin expression; experiment: Cell-surface enzyme immunoassay of TNF-α-induced E-selectin expression in endothelial cells; assay type: cell-based, human; conditions: 100 nM, TNF-α 10 ng/ml
Method: (§1) FIG. 2 is a set of bar graphs of cell-surface enzyme immunoassays. […] The difference between treatment with TNF-α alone and in the presence of [11,12]-EET were statistically significant (*p<0.05, **p<0.01), OD, optical density. […] After stimulation with TNF-α (10 ng/ml) in the presence or absence of EET, promoter activity was determined relative to basal activity. *p<0.01 vs. TNF-α alone.
To determine the biological effects of EETs, we treated tumor necrosis factor alpha (TNF-α)-stimulated human endothelial cells with physiological relevant concentrations (1-100 nM) of [5,6]-EET, [8,9]-EET, [11,12]-EET, [14,15]-EET, [11,12]-DHET.

[2] = system: VCAM-1 promoter; experiment: VCAM-1 promoter construct activity in transiently transfected bovine aortic endothelial cells; assay type: cell-based
Text: To localize cis-acting elements in the VCAM-1 promoter that might mediate the inhibitory effects of [11,12]-EET, we transiently transfected bovine aortic endothelial cells with a -755 bp VCAM-1 promoter construct (DeCaterina et al., 96 J. Clin. Invest. 60 (1995)). Stimulation with TNF-α induced a 13-fold increase in relative VCAM-1 promoter activity that was abolished by cotreatment with [11,12]-EET. […] To confirm that the tandem κB sites in the VCAM-1 promoter are repressed by [11,12]-EET we subcloned them into a heterologous promoter construct containing the SV40 enhancer linked to the luciferase reporter gene (pκB.Luc). Stimulation of transfected endothelial cells with TNF-α induced a 6-fold increase in pκB.Luc promoter activity that was abolished by co-treatment with [11,12]-EET, but not [14,15]-EET (FIG. 2C). […] Compared to transfection with the empty pcDNA3.1 vector, overexpression of CYP2J2 decreased TNF-induced VCAM-1 and pκB.Luc promoter activity by 70-80% which were reversed in the presence of SK[…] (FIG. 2C). Neither transfection with CYP2J2 cDNA alone nor treatment with SK[…] alone affected basal promoter activity.

[3] = system: NF-κB; experiment: NF-κB heterologous promoter (pκB.Luc) luciferase reporter in bovine endothelial cells; assay type: cell-based
Method: as §1
To localize cis-acting elements in the VCAM-1 promoter that might mediate the inhibitory effects of [11,12]-EET, we transiently transfected bovine aortic endothelial cells with a −755 bp VCAM-1 promoter construct (DeCaterina et al., 96 J. Clin. Invest. 60 (1995)). Stimulation with TNF-α induced a 13-fold increase in relative VCAM-1 promoter activity that was abolished by cotreatment with [11,12]-EET. […] To confirm that the tandem κB sites in the VCAM-1 promoter are repressed by [11,12]-EET we subcloned them into a heterologous promoter construct containing the SV40 enhancer linked to the luciferase reporter gene (pκB.Luc). Stimulation of transfected endothelial cells with TNF-α induced a 6-fold increase in pκB.Luc promoter activity that was abolished by co-treatment with [11,12]-EET, but not [14,15]-EET (FIG. 2C). […] Compared to transfection with the empty pcDNA3.1 vector, overexpression of CYP2J2 decreased TNF-induced VCAM-1 and pκB.Luc promoter activity by 70-80% which were reversed in the presence of SKF525A (FIG. 2C). Neither transfection with CYP2J2 cDNA alone nor treatment with SKF525A alone affected basal promoter activity.

[4] = system: IκB-α; experiment: Fate of IκB-α after TNF-α stimulation of human endothelial cells; assay type: cell-based; conditions: TNF-α 10 ng/ml, 15 min; EET 100 nM
Text: Co-treatment with [11,12]-EET prevented the nuclear accumulation of RelA. Since the nuclear translocation of RelA requires the degradation of its endogenous cytoplasmic inhibitor, inhibitor kappa B (IκB-α), we followed the fate of IκB-α after TNF-α stimulation in the presence or absence of [11,12]-EET. Stimulation of human endothelial cells with TNF-α caused a rapid and almost complete disappearance of IκB-α which was prevented by co-treatment with [11,12]-EET, but not [14,15]-EET.
A set of gel shift assays was performed. […] In some assays, [11,12]-EET (100 nM) was also added directly to the IKK assay (in vitro). As a control for nonspecific phosphorylation, the assay was performed without the addition of immunoprecipitated IKK (no enzyme) or in the presence of a IκB-α mutant (ΔSer 32, Ser 36→Thr) as substrate. The assay was performed three times with similar results.
Specificity of IKB was determined by the complete absence of phosphorylation when the mutated IκB-α substrate, GST-1κB-α (Δ32,36: S→T) which cannot be phosphorylated at serine residues 32 and 36, was substituted for wild-type GST-IκB-α.

[5] = system: bovine aortic endothelial cells (BAECs); experiment: Hypoxia-reoxygenation-induced cell injury in BAECs (cell number, LDH release, trypan blue); assay type: cell-based
Method: Effects of P450-derived arachidonic acid metabolites on hypoxia-reoxygenalion-induced injury in BAECs. BAECs, either untransfected, or 48 hours after transfection with pcDNA3.1/GFP or pcDNA3.1/CYP2J2, or 10 min after treatment with eicosanoids, epoxide hydrolase inhibitors or vehicle, were exposed to hypoxia (95% nitrogen plus 5% carbon dioxide) for 24 hours, followed by reoxygenation (95% air plus 5% carbon dioxide) for 4 hours using an environmental chamber within a 37° C. incubator. Cells maintained under continuous (28 hours) normoxic conditions served as controls.
EETs were prepared by total chemical synthesis as previously described (Corey el al., 102 J. Am. Chem. Soc. 1433-1435 (1980), Falck et al., 23 Tetrahedron Lett. 1755-1756 (1982)). DHETs were prepared by chemical hydration of EETs as described by Capdevila et al., 187 Methods Enzymol. 386-394 (1990). Synthetic EETs and DHETs were purified by reverse-phase HPLC prior to use. BAECs, grown to ˜85% confluency, were treated with either synthetic [11,12]-EET, [11,12]-DHET, or [14,15]-EET in ethanol vehicle (1 μmol/L each, final concentration) for 10 min prior to exposure to hypoxia-reoxygenation. […] Cells treated with vehicle alone served as controls.
After hypoxia-reoxygenation, the cell number was determined using a hemocytometer and the degree of cell injury was assessed by measuring lactate dehydrogenase release into the culture medium using the CytoTox 96 Non-Radioactive Cytotoxicity Assay Kit (Promega, Madison, Wis.) and by counting the number of trypan blue dye stained cells. Data are expressed as a percentage of values obtained from control cells maintained under normoxic conditions.

[6] = overexpression vs empty pcDNA3.1 vector
[7] = CYP2J2-transfected vs GFP-transfected BAECs

| Compound | inhibition of E-selectin expression [1] | effect on TNF-α-induced VCAM-1 promoter activity, −755 bp construct ([2]; cotreatment with TNF-α (13-fold increase)) | effect on TNF-α-induced pκB.Luc promoter activity ([3]; 100 nM, TNF-α 10 ng/ml (6-fold increase)) | effect on TNF-α-induced disappearance/degradation of IκB-α [4] | hypoxia-reoxygenation-induced cell injury, number of trypan blue stained cells ([5]; 1 μmol/L, added 10 min prior to hypoxia (24 h hypoxia, 4 h reoxygenation)) | decrease of TNF-induced VCAM-1 promoter activity [2, 6] | decrease of TNF-induced pκB.Luc promoter activity [3, 6] | cell number after hypoxia-reoxygenation [5, 7] | lactate dehydrogenase released into culture medium after hypoxia-reoxygenation [5, 7] | trypan blue stained cells after hypoxia-reoxygenation [5, 7] |
| --- | --- | --- | --- | --- | --- | --- | --- | --- | --- | --- |
| CCCCC/C=C\C[C@H]1O[C@H]1C/C=C\C/C=C\CCCC(=O)O [[11,12]-EET] | inhibited | abolished | abolished | prevented | significantly attenuates | – | – | – | – | – |
| CYP2J2: CYP2J2 cDNA (1.9 kb) subcloned into plasmid pcDNA3.1, transfected into endothelial cells | – | – | – | – | – | 70-80% | 70-80% | slightly increased | significantly less | significantly fewer |
